Measurements reported in US20030003485A1, “Methods for identifying antigens” (Ludwig Institute for Cancer Research, priority 2001, published 2003).
Ends that are not written are not given here.

Assays:
Type in all cases: cell-based, mouse
CTL clone B-24 [1] = assay: Cytotoxicity assay (51Cr release) with CTL clone B-24; settings: peptide pulsed P1.HTR target cells
Description: Cytotoxicity assay. Tumor cells were labeled by incubating 2×10^6 cells with 2 MBq of Na2^51CrO4, (New England Nuclear, Boston, Mass.) in 0.3 ml of medium for 90 min at 37° C. under 5% CO2 in air. The cells were washed and used as targets. […] In antibody blocking assays, serially diluted mAb (100 μl) was added to the mixture of effector cells and 10^4 labeled target cells (100 μl). After incubation for 3.5 hr at 37° C. under 5% CO2 in air, the supernatants were removed and their radioactivity was measured. The percentage of specific lysis was calculated by the following equation: (a-b)/(c-b)×100, where a is the radioactivity in the supernatant of target cells mixed with effector cells, b is the radioactivity in the supernatant of target cells incubated alone, and c is the radioactivity in the supernatant after lysis of target cells with 1% NP-40.

CTL clone B-24 [2] = assay: IFNγ ELISPOT assay with CTL clone B-24, peptide-pulsed stimulator cells and antibody blocking; settings: 5,000 B-24 cells, 10,000 CMS8 stimulator cells pulsed with peptide, 96-well plates
Description: ELISPOT assay. […] CTL were incubated with stimulator cells on the coated membrane in 96- or 24-well plates for 18 hr at 37° C. under 5% CO2 in air. After culture, the membranes were thoroughly washed with distilled water and incubated with detection antibody for 90 min at 37° C. The IFNγ spots were developed by alkaline phosphatase-conjugated substrate kit (Bio-Rad, Hercules, Calif.) and counted with a dissecting microscope.

AT-1 CTL [3] = assay: Cytotoxicity assay (4 hr 51Cr release) with AT-1 CTL
Description: In FIG. 10A, CMS8 cells were ^51Cr labeled and pulsed with the peptide at different concentrations. Cytotoxicity was determined by 4 hr ^51Cr release assay. Effector to target cell ratio was 10. In FIG. 10B, 1×10^4 AT-1 CTL was stimulated with 1×10^4 CMS8 cells in the presence of the 1.0 μM peptide. IFNγ in the supernatant was measured by ELISA.
Cytotoxicity assay. Tumor cells were labeled by incubating 2×10^6 cells with 2 MBq of Na2^51CrO4 (New England Nuclear, Boston, Mass.) in 0.3 ml of medium for 90 min at 37° C. under a 5% CO2 in air. The cells were washed and used as targets. For peptide sensitization, labeled target cells were incubated with peptides at 37° C. for 30 min […]. In direct assays, 10^4 labeled target cells (100 μl) were incubated with effector cells (100 μl) cells. In antibody blocking assays, serially diluted mAb (100 μl) was added to the mixture of effector cells and 10^4 labeled target cells (100 μl). After incubation for 4 hr at 37° C. under a 5% CO2 in air, the supernatants were removed and their radioactivity was measured. The percentage of specific lysis was calculated by the following equation: (a−b)×100/(c−b), where a is the radioactivity in the supernatant of target cells mixed with effector cells, b is that in the supernatant of target cells incubated alone, and c is that in the supernatant after lysis of target cells with 1% NP-40.

AT-1 CTL [4] = assay: IFNγ ELISA of AT-1 CTL stimulated with transfected or peptide-pulsed CMS8 cells; settings: 1.0 μM synthetic peptide, 24 hr
Description: FIG. 8 depicts deletion mutants and introduction of point mutations in S35. IFNγ production in the supernatant secreted by AT-1 CTL against various constructs was determined by ELISA after culture for 24 hr with transfected CMS8 cells. PCR fragments with deletion were amplified from S35 cDNA and cloned into pCI-neo vector with EcoR I and Sal I sites. Point mutations at nt 699 (A to C) and nt 701 (G to A) in Exp. III were introduced using site-directed mutagenesis kits.
9-mer overlapping peptides were synthesized in the ORF of the third reading frame (“3RF”) of S35. 1×10^4 AT-1 cells were cultured with 1×10^4 CMS8 cells in the presence of 1.0 μM synthetic peptides for 24 hr and IFNγ in the supernatant was measured by ELISA. H-2D^d peptide motifs are shown as XGPXXXXXL (SEQ ID NO: 26) and XGAXXXXXL (SEQ ID NO:27). The synthetic peptides are MERTPIQLGAEAIFRLVLM (SEQ ID NO:15); MERTPIQLG (SEQ ID NO:16); ERTPIQLGA (SEQ ID NO:17); RTPIQLGAE (SEQ ID NO:18); TPIQLGAEA (SEQ ID NO:19); PIQLGAEAI (SEQ ID NO:20); IQLGAEAIF (SEQ ID NO:21); QLGAEAIFR (SEQ ID NO:22); LGAEAIFRL (SEQ ID NO:10); GAEAIFRLV (SEQ ID NO: 23); AEAIFRLVL (SEQ ID NO:24); and EAIFRLVLM (SEQ ID NO:25).
IFNγ ELISA. CTL were stimulated with targets for 18 hr. and IFNγ in the culture supernatant was assayed by the sandwich ELISA. […]

AT-1 CTL [5] = assay: IFNγ ELISPOT assay with AT-1 CTL
Description: Transfection. Recombinant plasmids were purified by Wizard Plus Series 9600™ DNA purification system (Promega, Co., Madison, Wis.) after amplification of bacteria and transfected into 1×10^5 or 1×10^4 cells 24- or 96-well plates, respectively, with plasmid pdl3027 containing the polyoma T antigen (Dailey and Basilico, J. Virol. 54:739-749, 1985) using lipofectamine (GIBCO BRL, Rockville, Md.). After culture for 24 hr, the transfected cells were collected and plated onto anti-IFNγ mAb-coated nitrocellulose membranes in culture plates. AT-1 CTL were then added for ELISPOT assay.
ELISPOT assay. Nitrocellulose disk membranes (14 mm diameter) and 96-well nitrocellulose membrane-based plates (Millipore S4510, Millipore Corp., Bedford, Mass.) were coated with anti-IFNγ mAb (R4-6A2) in 0.05 M bicarbonate buffer (pH 9.6) at 4° C. overnight. After washing, membranes were blocked with RPMI 1640 containing 10% FCS and 50 μM 2-mercaptoethanol for 60 min at 37° C. CTL were incubated with stimulator cells on the coated membrane in 24- or -96well plates for 18 hr at 37° C. under a 5% CO2 in air. […] The IFNγ spots were developed by alkaline phosphatase-conjugated anti-rabbit IgG antibody and substrate kit (Bio-Rad, Hercules, Calif.) and counted with a dissecting microscope.

IPGLPLSL [pRL1a, IPGLPLSL]
cytotoxicity of B-24 against peptide pulsed P1.HTR (CTL clone B-24 [1]): showed cytotoxicity

ISTQNHRALDLVA (listed as Mus musculus) [T2H]
number of IFNγ spots (CTL clone B-24 [2]): no spot

LGAEAIFRL (listed as Mus musculus)
inhibition of Meth A (sv) lysis by AT-1 CTL by peptide pulsed P815 (AT-1 CTL [3]): completely inhibited
peptide concentration at which AT-1 CTL lysis of peptide pulsed CMS8 was detected (AT-1 CTL [3]; 4 hr 51Cr release, effector to target cell ratio 10): 20 to 30 nM
stimulation of AT-1 for IFNγ production by peptide pulsed CMS8 cells (AT-1 CTL [4]): stimulation was observed

LSPFPFDL [p2Ca]
number of IFNγ spots (CTL clone B-24 [2]): no spot

B1: S35: cDNA clone, 937 bp long, from Meth A (sv) cDNA library, coding for antigen recognized by AT-1 (nucleic acid, listed as Mus musculus)
DNA: TTAAAAGGGAGATGGAAAGGACTCCAATCCAATTAGGGGCAGAAGCTATCTTTAGACTAGTACTAATGTGGTGAGTATCCTGCCTCACTTAACATCCTTAACCTAGCCTGTGCTTCAGGGAAAGGAAACAAAAGATAGATATATAAAGGCTATTTACTCTGCAAGCCAAACCAAAATTTTGGTACAGAAAATGACAAAGTTTCTTTTTCTCAATAGTAGGAATGTTCTGTGTTCCTAGCCAAAAATTTGTCATCAGTGTCCCTGTGGCTCCCATCTGTCTTTCCTGACCCCCATGATTACTTTTCACTGACAATATAAATCTTAAAAAGCTTTGAGACCAGTGTGCTGATCTAGTTTTTTAAGTTTTGGGTTTTGTTGTTGTGTTTTGGTTTTGGTGTTTTTACGTTTTATTGACTTACAAGCTTTCACTATGTATCCCAGACTGGCTTTGAACTCAGGACCTTCCTGCCTTAGTCTCCCAGGTGCTGAGATTGTGGGGCTGTGTCACTATATTACAACTAATATTTATCAGAAAAATGTTCCTTTTTTGGAAGAAAATGAAGAAAGTGCTGTTTTTGCACTTATCAATTGAGGGGCTGATTTTGATTCGCTCAAGAAAATAGCAGTTTTAACCTAGACATTTGCTGTGGGGACTTGGAACTTTAACTTGGGGTGTCGCTAACTCTACGCTTTCTTCTAGGTCACCATTACTCCCAGCTCCATGAGGAAGATATGTACATACTTTCGTAGAAAGACTCAAGATGACTTCTGCAGTCCTGAACACTCAACTGAATTATAGATGCTAATCTGAAGTTCATTGAACTTGGGTCTACAAAGATTTTTTAAAAAGGCTTTAAAATTCTGGTCTTTAAGAAAATGGTCATCTTTTCATTTTGGAAAAAGTCCTTCTACTCTTTAGCAGACCTAGTCAGGCCCC
stimulation of AT-1 by cells transfected with cDNA clone (AT-1 CTL [5]; CMS5a, CMS8 and CMS13, or H-2D^d-transfected L cells): stimulated
stimulation of AT-1 by cells transfected with cDNA clone (AT-1 CTL [5]; H-2L^d-transfected L cells): not
